The target of assay [1] is Protein cereblon/Poly [ADP-ribose] polymerase 1 (Homo sapiens) (UniProt P09874+Q96SW2). Nature of the assay: Protac activity at CRBN/PARP1 in human SW620 cells assessed as degradation of PARP1 at <100 nM measured after 24 hrs by Western blot analysis relative to control. Type of assay: cell-based. (In general: In western blotting, separated proteins are transferred to a membrane and probed.)

Assay [2] deals with Protein cereblon/Indoleamine 2,3-dioxygenase 1 (Homo sapiens) (UniProt P14902+Q96SW2). Nature of the assay: Protac activity at CRBN/IDO1 in human HeLa cell assessed as degradation of IDO1 measured after 24 hrs by Western blot assay relative to control. In kind it is cell-based.
Assay [3] addresses von Hippel-Lindau disease tumor suppressor/Histone deacetylase 1/Lysine-specific histone demethylase 1A/REST corepressor 1 (Homo sapiens, UniProt O60341+P40337+Q13547+Q9UKL0). Briefly: Protac activity at VHL/LSD1/HDAC1/CoREST complex interaction in human ES1 cells assessed as HDAC1 degradation by fluorescence based assay. In kind it is cell-based.
Assay [4] addresses von Hippel-Lindau disease tumor suppressor/Histone deacetylase 2/Lysine-specific histone demethylase 1A/REST corepressor 1 (Homo sapiens, UniProt O60341+P40337+Q92769+Q9UKL0). Nature of the assay: Protac activity at VHL/LSD1/HDAC2/CoREST complex interaction in human ES1 cells assessed as induction of HDAC2 degradation by fluorescence based assay. In kind it is cell-based.
Assay [5] concerns the target von Hippel-Lindau disease tumor suppressor/Histone deacetylase 3/Lysine-specific histone demethylase 1A/REST corepressor 1 (Homo sapiens, UniProt O15379+O60341+P40337+Q9UKL0). Nature of the assay: Protac activity at VHL/LSD1/HDAC3/CoREST complex interaction in human ES1 cells assessed as induction of HDAC3 degradation by fluorescence based assay. Type of assay: cell-based.

For assay [6], the target named is Protein cereblon/Receptor-interacting serine/threonine-protein kinase 2 (Homo sapiens, UniProt O43353+Q96SW2). Briefly: Protac activity at CRBN/RIPK2 in human THP-1 cells assessed as degradation of RIPK2 measured after 18 hrs by capillary immunoassay. In kind it is cell-based.
Assay [7] deals with T1, von Hippel-Lindau disease tumor suppressor/Histone deacetylase 3 (Homo sapiens, UniProt O15379+P40337). Briefly: Protac activity at VHL/HDAC3 in human MDA-MB-468 cells assessed as HDAC3 degradation measured after 14 hrs by Western blot analysis. In kind it is cell-based.
Target sequence in this assay (O15379 whole entry): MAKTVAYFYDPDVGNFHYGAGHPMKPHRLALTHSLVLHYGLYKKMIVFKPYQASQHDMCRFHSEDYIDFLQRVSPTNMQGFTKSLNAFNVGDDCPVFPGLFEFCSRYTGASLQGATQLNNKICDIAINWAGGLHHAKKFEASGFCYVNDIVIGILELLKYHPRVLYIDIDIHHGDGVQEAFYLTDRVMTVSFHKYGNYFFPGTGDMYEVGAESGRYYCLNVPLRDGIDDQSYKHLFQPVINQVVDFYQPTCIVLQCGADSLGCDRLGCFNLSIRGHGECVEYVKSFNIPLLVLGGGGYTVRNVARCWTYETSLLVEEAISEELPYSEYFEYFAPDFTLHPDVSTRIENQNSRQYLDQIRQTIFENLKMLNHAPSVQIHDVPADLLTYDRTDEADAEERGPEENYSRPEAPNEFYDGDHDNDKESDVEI
Target sequence in this assay (P40337 whole entry): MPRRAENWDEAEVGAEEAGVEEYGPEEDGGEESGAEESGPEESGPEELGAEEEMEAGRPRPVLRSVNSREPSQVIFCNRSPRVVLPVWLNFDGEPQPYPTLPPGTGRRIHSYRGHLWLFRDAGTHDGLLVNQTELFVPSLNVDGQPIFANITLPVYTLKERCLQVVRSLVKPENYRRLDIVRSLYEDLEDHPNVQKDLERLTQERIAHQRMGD
In assay [8] the target is T1, von Hippel-Lindau disease tumor suppressor/Histone deacetylase 3. Briefly: Protac activity at VHL/HDAC3 in human MDA-MB-468 cells assessed as HDAC3 degradation at 125 nM measured after 8 hrs by Western blot analysis relative to control. In kind it is cell-based.
Target sequence in this assay (O15379 whole entry, looked up): as the sequence (O15379 whole entry) above
Target sequence in this assay (P40337 whole entry, looked up): as the sequence (P40337 whole entry) above
A further assay relates to Jurkat. Nature of the assay: Anticancer activity against human Jurkat cells assessed as cell growth inhibition. Type of assay: functional, cell-based.
The subject of the next assay is HL-60. Briefly: Anticancer activity against human HL-60 cells assessed as cell growth inhibition. In kind it is functional, cell-based.
For another assay, the system named is MOLT-4. Nature of the assay: Anticancer activity against human MOLT-4 cells assessed as cell growth inhibition. In kind it is functional, cell-based.
In assay [9] the target is Protein cereblon/Histone acetyltransferase KAT2B (Homo sapiens) (UniProt Q92831+Q96SW2). Nature of the assay: Protac activity at CRBN/PCAF in human THP-1 cells assessed as PCAF degradation at 1.5 nM measured after 10 mins by Western blot analysis relative to control. Type of assay: cell-based.
Assay [10] deals with Protein cereblon/Histone acetyltransferase KAT2A (Homo sapiens) (UniProt Q92830+Q96SW2). Briefly: Protac activity at CRBN/GCN5 in human THP-1 cells assessed as GCN5 degradation at 3 nM measured after 10 mins by Western blot analysis relative to control. Type of assay: cell-based.
Assay [11] deals with von Hippel-Lindau disease tumor suppressor/Interleukin-1 receptor-associated kinase 4 (Homo sapiens, UniProt Q9NWZ3+P40337). Briefly: Protac activity at VHL/IRAK4 in human HEK293T cells assessed as IRAK4 degradation measured after 24 hrs by immunoblotting analysis. In kind it is cell-based.
von Hippel-Lindau disease tumor suppressor/Interleukin-1 receptor-associated kinase 4, sequence (Q9NWZ3 whole entry): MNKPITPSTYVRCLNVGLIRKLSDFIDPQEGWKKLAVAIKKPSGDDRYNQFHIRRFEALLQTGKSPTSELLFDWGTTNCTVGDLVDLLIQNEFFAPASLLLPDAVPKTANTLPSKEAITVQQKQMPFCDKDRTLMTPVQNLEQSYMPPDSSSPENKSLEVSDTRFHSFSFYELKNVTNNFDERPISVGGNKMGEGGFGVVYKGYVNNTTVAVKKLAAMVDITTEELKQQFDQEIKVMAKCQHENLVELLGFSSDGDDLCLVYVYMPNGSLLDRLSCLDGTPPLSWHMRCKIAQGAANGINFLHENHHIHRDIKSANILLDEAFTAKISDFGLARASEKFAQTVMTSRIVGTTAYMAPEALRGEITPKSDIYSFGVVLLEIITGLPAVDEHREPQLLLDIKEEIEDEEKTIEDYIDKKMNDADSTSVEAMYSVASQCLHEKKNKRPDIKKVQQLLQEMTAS
von Hippel-Lindau disease tumor suppressor/Interleukin-1 receptor-associated kinase 4, sequence (P40337 whole entry): as the sequence (P40337 whole entry) above
The target in another assay is Protein cereblon (Homo sapiens, UniProt Q96SW2). Briefly: Binding affinity to CRBN (unknown origin) assessed as dissociation constant by Tr-FRET assay.
Assay [12] concerns the target T2, von Hippel-Lindau disease tumor suppressor/Receptor-interacting serine/threonine-protein kinase 2 (Homo sapiens, UniProt O43353+P40337). Nature of the assay: Protac activity at VHL/RIPK2 in human THP-1 cells assessed as RIPK2 degradation measured after 16 hrs by Western blot analysis. In kind it is cell-based.
Assay [13] has as its target T2, von Hippel-Lindau disease tumor suppressor/Receptor-interacting serine/threonine-protein kinase 2. Briefly: Protac activity at VHL/RIPK2 in human THP-1 cells assessed as RIPK2 degradation at 10 nM measured after 16 hrs by Western blot analysis relative to control. Type of assay: cell-based.
In assay [14] the target is Receptor-interacting serine/threonine-protein kinase 2 (Homo sapiens, UniProt O43353). Nature of the assay: Inhibition of RIPK2 (unknown origin) by fluorescence polarization assay. (In general: In fluorescence polarisation assays a small probe gives low polarisation when free and higher when bound to something large.)
Assay [15] addresses E3 ubiquitin-protein ligase XIAP/Receptor-interacting serine/threonine-protein kinase 2 (Homo sapiens, UniProt P98170+O43353). Nature of the assay: Protac activity at IAP/RIPK2 in human THP-1 cells assessed as degradation of RIPK2 measured after 18 hrs by capillary immunoassay. In kind it is cell-based.
The subject of the next assay is HeLa. Briefly: Anticancer activity against human HeLa cells assessed as cell growth inhibition measured after 24 hrs by MTT assay. In kind it is functional, cell-based. Background: Tetrazolium dyes change colour on reduction, which living cells bring about.

Protein cereblon/Poly [ADP-ribose] polymerase 1 (Homo sapiens), sequence (P09874 2-1014 limits assumed): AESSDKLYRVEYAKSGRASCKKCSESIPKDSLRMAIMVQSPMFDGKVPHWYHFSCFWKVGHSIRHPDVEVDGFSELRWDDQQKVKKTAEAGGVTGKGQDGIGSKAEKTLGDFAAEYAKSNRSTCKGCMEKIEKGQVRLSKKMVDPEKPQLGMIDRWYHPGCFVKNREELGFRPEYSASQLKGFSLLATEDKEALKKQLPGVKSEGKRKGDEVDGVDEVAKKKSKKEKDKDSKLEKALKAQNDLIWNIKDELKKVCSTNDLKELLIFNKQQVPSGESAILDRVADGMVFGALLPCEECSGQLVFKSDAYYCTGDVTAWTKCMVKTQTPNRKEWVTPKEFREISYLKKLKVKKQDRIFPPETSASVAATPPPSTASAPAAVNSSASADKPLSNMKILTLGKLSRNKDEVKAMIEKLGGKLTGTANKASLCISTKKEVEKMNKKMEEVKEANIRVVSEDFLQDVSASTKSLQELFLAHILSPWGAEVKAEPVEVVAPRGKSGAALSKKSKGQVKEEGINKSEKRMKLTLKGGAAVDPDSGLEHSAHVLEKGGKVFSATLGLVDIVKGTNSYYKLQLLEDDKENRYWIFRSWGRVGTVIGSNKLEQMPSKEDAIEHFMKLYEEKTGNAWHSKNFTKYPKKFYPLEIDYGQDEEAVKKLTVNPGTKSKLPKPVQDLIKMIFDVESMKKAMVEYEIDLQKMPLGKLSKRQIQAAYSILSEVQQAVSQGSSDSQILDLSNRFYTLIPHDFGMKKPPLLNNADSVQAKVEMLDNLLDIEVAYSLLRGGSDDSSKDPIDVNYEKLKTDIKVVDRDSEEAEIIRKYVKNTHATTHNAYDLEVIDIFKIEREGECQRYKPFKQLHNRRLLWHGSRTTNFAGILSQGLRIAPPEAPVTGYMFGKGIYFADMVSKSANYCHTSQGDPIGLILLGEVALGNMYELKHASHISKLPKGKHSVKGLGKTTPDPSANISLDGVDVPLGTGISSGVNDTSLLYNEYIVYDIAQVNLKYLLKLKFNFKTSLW
Protein cereblon/Poly [ADP-ribose] polymerase 1 (Homo sapiens), sequence (Q96SW2 whole entry partner): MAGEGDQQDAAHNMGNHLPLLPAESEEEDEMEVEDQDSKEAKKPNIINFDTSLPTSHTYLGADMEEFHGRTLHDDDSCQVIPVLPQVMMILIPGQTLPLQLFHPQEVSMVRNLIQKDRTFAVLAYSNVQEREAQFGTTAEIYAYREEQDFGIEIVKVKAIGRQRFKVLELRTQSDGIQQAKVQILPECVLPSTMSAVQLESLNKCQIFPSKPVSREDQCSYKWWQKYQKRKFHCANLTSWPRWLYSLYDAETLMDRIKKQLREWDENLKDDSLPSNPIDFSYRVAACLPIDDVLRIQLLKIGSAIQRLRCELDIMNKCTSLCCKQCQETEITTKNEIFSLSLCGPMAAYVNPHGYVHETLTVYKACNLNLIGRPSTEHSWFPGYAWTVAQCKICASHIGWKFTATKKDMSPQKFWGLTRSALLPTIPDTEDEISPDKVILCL
von Hippel-Lindau disease tumor suppressor/Histone deacetylase 3/Lysine-specific histone demethylase 1A/REST corepressor 1, sequence (O15379 whole entry, looked up, other chains not shown): as the sequence (O15379 whole entry) above
von Hippel-Lindau disease tumor suppressor/Histone deacetylase 3/Lysine-specific histone demethylase 1A/REST corepressor 1, sequence (P40337 whole entry, looked up, other chains not shown): as the sequence (P40337 whole entry) above
von Hippel-Lindau disease tumor suppressor/Histone deacetylase 3/Lysine-specific histone demethylase 1A/REST corepressor 1, sequence (Q9UKL0 whole entry, looked up, other chains not shown): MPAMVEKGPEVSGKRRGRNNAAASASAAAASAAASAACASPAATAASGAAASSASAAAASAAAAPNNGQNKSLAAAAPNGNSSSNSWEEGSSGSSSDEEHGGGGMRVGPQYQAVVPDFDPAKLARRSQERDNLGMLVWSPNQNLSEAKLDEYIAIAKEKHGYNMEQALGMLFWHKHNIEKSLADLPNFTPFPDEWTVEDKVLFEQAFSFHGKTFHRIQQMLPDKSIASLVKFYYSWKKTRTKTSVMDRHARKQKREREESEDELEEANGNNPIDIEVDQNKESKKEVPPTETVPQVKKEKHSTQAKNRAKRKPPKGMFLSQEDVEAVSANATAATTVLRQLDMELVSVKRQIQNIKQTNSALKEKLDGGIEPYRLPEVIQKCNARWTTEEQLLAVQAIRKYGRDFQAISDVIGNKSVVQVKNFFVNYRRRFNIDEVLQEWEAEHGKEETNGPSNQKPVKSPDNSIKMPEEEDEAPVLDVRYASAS

`O=C1CCC(N2Cc3c(NCCCCCCCCCCCNC(=O)c4cc(Cc5n[nH]c(=O)c6ccccc56)ccc4F)cccc3C2=O)C(=O)N1` (stereo not given): the Activity in assay [1] was 80%.
As for `O=C1CCC(N2C(=O)c3cccc(NCCOCCOCCOCCOCCOCCOCCOCCNCCNc4nonc4/C(=N/O)Nc4ccc(F)c(Br)c4)c3C2=O)C(=O)N1` (stereo not given), the Emax (in general, the maximal effect, on the per cent scale that the assay sets) in assay [2] is 93%.
For the compound `Cc1ncsc1-c1ccc(CNC(=O)[C@@H]2C[C@@H](O)CN2C(=O)[C@@H](NC(=O)CCCCCCCCCCC(=O)Nc2ccc(C(=O)Nc3ccccc3N)cc2)C(C)(C)C)cc1`, the IC50 in assay [3], in assay [4] and in assay [5] was 500 nM in each case.
Regarding `CC(C)(C)S(=O)(=O)c1cc2c(Nc3ccc4scnc4c3)ccnc2cc1OCCOCCOCCOCCOCC(=O)Nc1cccc2c1CN(C1CCC(=O)NC1=O)C2=O` (stereo not given), the DC50 – broadly, the concentration at which degradation of the target reaches its halfway point – in assay [6] was found to be 2.5 nM.
Take `CCCNNC(=O)c1ccc(-c2ccc(NC(=O)CCCCCCC(=O)N[C@H](C(=O)N3C[C@H](O)C[C@H]3C(=O)N[C@@H](C)c3ccc(-c4scnc4C)cc3)C(C)(C)C)cc2)cc1`: in [7], the DC50 was found to be 42 nM. For the same compound, the Activity in assay [8] stood at 70%.
Take `O=C(/C=C/c1cccnc1)NCCCCC1CCN(C(=O)c2ccc(N3CCN(CCCCCC#Cc4cccc5c4CN(C4CCC(=O)NC4=O)C5=O)CC3)cc2)CC1` (stereo not given): the IC50 (in general, the concentration that inhibits the measured activity by half) worked out at 4.46 nM with Jurkat, 8.56 nM in the assay on HL-60 and 2.96 nM with MOLT-4.
On to `CN1C[C@H](Nc2cnn(C)c(=O)c2Br)C[C@H](c2ccc(C(=O)N(C)CCCN(C)c3ccc(CCCOc4cccc5c4C(=O)N(C4CCC(=O)NC4=O)C5=O)cc3)cc2)C1` (stereo not given in full), for which the Activity in [9] and in [10] was 50% each time.
Turning to `CC(C)Nc1cc(-n2ccc3cc(C#N)cnc32)ncc1C(=O)N[C@H]1CC[C@H](C(=O)NCCOCCNC(=O)COc2cccc3c2C(=O)N(C2CCC(=O)NC2=O)C3=O)CC1` (stereo not given in full), in assay [11], the DC50 was 405 nM. On Protein cereblon, the Kd (usually the equilibrium constant for the complex coming apart) was determined as 490 nM.
On to `C=C([C@@H](NC(=O)COCCOCCOCCOCCOc1cc2nccc(Nc3ccc4scnc4c3)c2cc1S(=O)(=O)C(C)(C)C)C(C)(C)C)N1C[C@H](O)C[C@H]1C(=O)NCc1ccc(-c2scnc2C)cc1`, for which the DC50 in assay [12] is 1.4 nM. Also, the Emax in assay [13] was over 95%. The same compound returned an IC50 in assay [14] of 10 nM.
With `CN[C@@H](C)C(=O)N[C@H](C(=O)N1Cc2cc(OCCOCCOCCOCCOc3cc4nccc(Nc5ccc6scnc6c5)c4cc3S(=O)(=O)C(C)(C)C)ccc2C[C@H]1C(=O)N[C@@H]1CCCc2ccccc21)C(C)(C)C`, the DC50 in assay [15] amounted to 2 nM.
Consider `CC1(NCc2cn(CCOCCOCCOCCOCCNc3cccc4c3C(=O)N(C3CCC(=O)NC3=O)C4=O)nn2)CCN(c2cnc(-c3cccc(Cl)c3Cl)c(N)n2)CC1` (stereo not given), for which the IC50 with HeLa amounted to 4.3 nM.

For the origin of these results see ChEMBL document CHEMBL5346894, “Developments of PROTACs technology in immune-related diseases” (Eur J Med Chem, 2023).
